Converted amounts (≈) assume the structure as drawn.
How the values were obtained:
[1] = DPPH free radical scavenging assay; conditions: Table 3, unit not given in the table (μM); read-out: EC50 Antioxidant activity (DPPH•)
[2] = ABTS+ free radical scavenging assay; conditions: Table 3, unit not given in the table (μM); read-out: EC50 Antiradical activity (ABTS+)
[3] = system: Pseudomonas agarici (DSMZ11810); assay: In vitro antibacterial assay, micro-dilution MIC; format: cell-based; conditions: 30 °C, 24 h
[4] = system: Escherichia coli (DSMZ1058); assay: In vitro antibacterial assay, micro-dilution MIC; format: cell-based; conditions: Escherischia coli, 37 °C, 24 h
[5] = system: Staphylococcus warneri (DSMZ20036); assay: In vitro antibacterial assay, micro-dilution MIC; format: cell-based; conditions: 37 °C, 24 h
[6] = system: Micrococcus luteus (DSMZ1605); assay: In vitro antibacterial assay, micro-dilution MIC; format: cell-based; conditions: 30 °C, 24 h
[7] = system: Escherichia coli, Micrococcus luteus, Pseudomonas agarici and Staphylococcus warneri; assay: In vitro antibacterial assay, MIC over all the tested bacterial strains; format: cell-based; conditions: range over four bacterial strains; read-out: MIC ranging over all the tested bacterial strains
Electric eel AChE = Electric eel AChE (Electrophorus electricus, UniProt O42275); assay: biochemical; conditions: substrate ATCI, pH 8.0, 25 °C, read-out: IC50 acetylcholinesterase inhibition
Sequence of Electric eel AChE (O42275 24-633): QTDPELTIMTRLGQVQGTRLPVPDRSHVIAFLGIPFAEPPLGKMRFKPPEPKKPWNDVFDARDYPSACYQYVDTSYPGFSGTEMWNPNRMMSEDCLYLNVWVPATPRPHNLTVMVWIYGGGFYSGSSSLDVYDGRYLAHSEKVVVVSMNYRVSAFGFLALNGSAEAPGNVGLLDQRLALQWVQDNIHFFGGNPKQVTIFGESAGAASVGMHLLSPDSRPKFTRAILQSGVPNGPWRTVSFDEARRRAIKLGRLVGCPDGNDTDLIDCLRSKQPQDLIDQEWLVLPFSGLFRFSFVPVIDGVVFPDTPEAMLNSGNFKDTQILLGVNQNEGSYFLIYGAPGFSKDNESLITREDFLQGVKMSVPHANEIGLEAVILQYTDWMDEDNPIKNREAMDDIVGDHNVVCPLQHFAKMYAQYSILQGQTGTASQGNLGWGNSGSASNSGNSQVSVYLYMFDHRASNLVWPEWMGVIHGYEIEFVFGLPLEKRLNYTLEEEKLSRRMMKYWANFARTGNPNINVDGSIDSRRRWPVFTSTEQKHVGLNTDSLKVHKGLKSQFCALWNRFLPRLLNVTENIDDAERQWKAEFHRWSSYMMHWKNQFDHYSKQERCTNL

[8] = system: Trypanosoma cruzi trypomastigotes; parameters: method as in PMID 28572816; conditions: cited from earlier work
mucosal-type mast cells = conditions: cited from earlier work
p53-HDM2 interaction = system: p53-HDM2 interaction; parameters: method as in PMID 16246554; conditions: cited from earlier work

SMILES	EC50 [1] [µM]	EC50 [2] [µM]	MIC [3] [µg/mL]	MIC [4] [µg/mL]	MIC [5] [µg/mL]	MIC [6] [µg/mL]	MIC [7] [µg/mL]	IC50 (Electric eel AChE) [nM]	IC50 anti-Trypanosoma cruzi activity against trypomastigotes [8] [µg/mL]	effect on the activity of mucosal-type mast cells (mucosal-type mast cells)	inhibition of p53-HDM2 interaction (p53-HDM2 interaction)
Cc1cc(C(C)(C)C)c(O)c(C(C)(C)C)c1 [BHT, butylated hydroxytoluene, reference compound]	0.46	0.06	–	–	–	–	–	–	–	–	–
O=C1CC(O)C(CO)O1 (stereo not drawn) [Compound 1, 2'-deoxyribolactone]	0.66 ± 0.02	0.49 ± 0.02	0.19 (≈ 1.44 µM)	0.3 (≈ 2.27 µM)	0.17 (≈ 1.29 µM)	0.32 (≈ 2.42 µM)	0.17 to 0.58 (≈ 1.29 to 4.39 µM)	1930	–	–	–
CNC(C)C1CCC(N)C(OC2C(N)CC(N)C(OC3OCC(C)(O)C(NC)C3O)C2O)O1 (stereo not drawn) [Gentamicin, reference compound]	–	–	0.01 (≈ 0.0209 µM)	0.01 (≈ 0.0209 µM)	0.01 (≈ 0.0209 µM)	0.01 (≈ 0.0209 µM)	–	–	–	–	–
CC(C)[C@@H](C)/C=C/[C@@H](C)[C@H]1CC[C@H]2C3=CC=C4C[C@@H](O)CC[C@]4(C)[C@H]3CC[C@]12C [Compound 3, ergosterol]	1.09 ± 0.02	0.83 ± 0.02	–	–	–	–	–	1520	51.3 (≈ 129 µM)	inhibitory effect	–
COc1ccc(O)c(C(C)(C)C)c1 [BHA, butylated hydroxyanisole, reference compound]	0.13	0.01	–	–	–	–	–	–	–	–	–
C=C(C(=O)O)C(CCCCCC)C(=O)O (stereo not drawn) [Compound 2, hexylitaconic acid]	0.56 ± 0.02	0.88 ± 0.02	0.29 (≈ 1.35 µM)	0.58 (≈ 2.71 µM)	0.58 (≈ 2.71 µM)	0.29 (≈ 1.35 µM)	0.17 to 0.58 (≈ 0.793 to 2.71 µM)	1540	–	–	inhibitor

— paper PMC6597039, “Bioactive secondary metabolites from new endophytic fungus Curvularia. sp isolated from Rauwolfia macrophylla” (PLoS ONE, 2019)
